Columns and labels:
Format in all cases: binding
HSA = HSA (Homo sapiens, UniProt P02768); test: Capture of DNA from plasma with biotinylated HSA capture reagent, gel electrophoresis; set-up: purchased Sigma Aldrich (HSA); biotinylated in house (Thermo Fisher Scientific 21217); Pierce streptavidin magnetic beads (Thermo Scientific 88816); conditions: salt washes
Protocol: Gel electrophoresis: DNA samples collected at different steps of the capture procedure were analyzed by electrophoresis on polyacrylamide gels. All electrophoresis experiments were performed using Lonza PAGEr™ Gold Precast Gels: Gradient, 10×10 cm, 8-16%, purchased from Thermo-Fisher (BMA59519). Each supernatant fraction collected at different steps of the capture procedure were suspended in TAE running buffer and analyzed. In a typical experiment, 25 μL total volume of solution was loaded per lane (well capacity). Gels were run in TAE buffer (40 mM Tris, 20 mM Acetic Acid, 0.4 mM EDTA) at a constant current of 20 mA for approximately three hours. Gels for analysis of DNA were stained with Stains-all solution, destained in water, removed, visualized and imaged on a flat-bed scanner. Gels for analysis of hot labeled cy5′-25MER DNA were visualized using a Typhoon™ Trio+phosphorimager (GE Healthcare).
Capture strategy: In some examples, biotinylated HSA acts as an affinity reagent for ligands in plasma that bind HSA. In the capture step, streptavidin coated magnetic beads are attached to biotinylated HSA then inserted into plasma. With application of a magnetic field, ligand-bound biotinylated HSA is retrieved. Captured HSA contains bound plasma components (ligands).
Ligand recovery: In the capture process, HSA-bound components are washed off the capture reagent. […]

biotinylated HSA (HSAB) = biotinylated HSA (HSAB) (Homo sapiens, UniProt P02768); test: DSC thermograms of biotinylated HSA (HSAB) with ligands; conditions: HSAB, measured versus calculated composite curves (FIG. 23)
human plasma = test: DSC thermograms of plasma with ligand; conditions: plasma, measured versus calculated composite curves (FIG. 22)

Sequence of HSA (P02768 25-609): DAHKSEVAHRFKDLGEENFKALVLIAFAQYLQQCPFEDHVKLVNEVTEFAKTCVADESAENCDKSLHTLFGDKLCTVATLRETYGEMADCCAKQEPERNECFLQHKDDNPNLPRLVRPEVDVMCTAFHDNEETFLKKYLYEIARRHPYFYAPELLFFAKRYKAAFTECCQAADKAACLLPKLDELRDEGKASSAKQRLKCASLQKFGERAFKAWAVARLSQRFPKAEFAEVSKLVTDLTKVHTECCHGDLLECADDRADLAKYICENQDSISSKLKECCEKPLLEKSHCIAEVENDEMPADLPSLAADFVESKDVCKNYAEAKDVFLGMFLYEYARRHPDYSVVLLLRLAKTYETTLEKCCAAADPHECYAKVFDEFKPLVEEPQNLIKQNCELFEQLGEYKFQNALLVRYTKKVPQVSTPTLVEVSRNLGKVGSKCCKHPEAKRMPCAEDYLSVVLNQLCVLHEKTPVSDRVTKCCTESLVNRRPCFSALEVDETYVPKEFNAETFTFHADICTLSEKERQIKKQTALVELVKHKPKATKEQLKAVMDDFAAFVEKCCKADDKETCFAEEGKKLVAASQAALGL
Sequence of biotinylated HSA (HSAB) (P02768 25-609): as above

“ssDNA: 25-base single strand DNA 25R, 5′-CGACATGACCTTGTCGCTAACATCC-3′ (DNA CGACATGACCTTGTCGCTAACATCC; DNA, backbone and methylation of C not given here)” was tested, and the “binding to HSA by gel analysis” value (HSA) was “detectable, but weak”, the “interaction judged by effect on the thermogram” value (biotinylated HSA (HSAB)) was “interact very weakly” and the “interaction judged by effect on the thermogram” value (human plasma) was “interact very weakly”.
